Like-named read-outs stand apart in the source and are kept apart here.
Assays:
[1] = system: morphine-induced analgesia; assay: inhibition of morphine-induced analgesia after intracerebroventricular administration; format: in vivo; settings: mice
[2] = target: μ-opioid receptor (Cavia porcellus, UniProt P97266); assay: guinea pig ileum (GPI) bioassay; format: cell-based; settings: Table 4
Protocol: The myenteric plexus longitudinal muscle preparations (2-3 cm segments) from the small intestine of male Hartley strain guinea pigs (GP1) measured μ-opioid receptor agonism and a single mouse vas deferens (MVD) was used to determine δ-opioid receptor agonism as described in Sasaki et al. Bioorg. […] The isolated tissues were suspended in organ baths containing balanced salt solutions in a physiological buffer, pH 7.5. Agonists were tested for the inhibition of electrically evoked contraction and expressed as IC50 (nM) obtained from the dose-response curves.

[3] = target: T1, δ-opioid receptor (Rattus norvegicus, UniProt P33533); assay: opioid receptor binding competition assay, rat brain P2 synaptosomal membranes (δ); settings: Table 3; versus [3H]DPDPE; rat brain synaptosomes; read-out: Ki(δ)
T1 construct: from tissue; host or cells: rat brain P2 synaptosomal membranes (Sprague-Dawley)
Protocol: (§1) Synaptosomes were preincubated to remove endogenous opioids, washed in excess ice-cold buffer containing protease inhibitor and stored in a glycerol-containing buffer with protease inhibitor at −80° C. as described in Lazarus et al., J. Med. Chem. 34:1350-55 (1991). […] After incubation, the radiolabeled membranes were rapidly filtered on Whatman GF/C glass fiber filters presoaked in 0.1% polyethylenimine in order to optimize the signal-to-noise ratio, washed with ice-cold BSA buffer, and dried at 75-80° C. Radioactivity was determined using EcoLume (ICN, Costa Mesa, Calif.). All compounds were analyzed in duplicate using 5-8 peptide dosages and several synaptosomal preparations in independent repetitions to ensure statistical significance. The affinity constants (Ki) were calculated according to Cheng and Prusoff (Cheng et al., Biochem. Pharmacol., 22: 3099-3108 ([…])).

[4] = target: T2, μ-opioid receptor (Rattus norvegicus, UniProt P33535); assay: opioid receptor binding competition assay, rat brain P2 synaptosomal membranes (μ); settings: Table 3
T2 construct: from tissue; host or cells: rat brain P2 synaptosomal membranes (Sprague-Dawley)
Protocol: as §1

[5] = target: T3, δ-opioid receptor (Mus musculus, UniProt P32300); assay: mouse vas deferens (MVD) bioassay; format: cell-based; settings: Table 4
T3 construct: from tissue; host or cells: isolated mouse vas deferens
Description: Bioorg. Med. Chem., 11: 675-678 (2003). The isolated tissues were suspended in organ baths containing balanced salt solutions in a physiological buffer, pH 7.5. […]

[6] = target: T2, μ-opioid receptor; settings: Table 3, reference rows marked e, f, cited from earlier work
[7] = target: T1, δ-opioid receptor; settings: Table 3; reference rows marked e, f, g (no SE, no n); cited from earlier work

μ-opioid receptor (Cavia porcellus, UniProt P97266), sequence (P97266 whole entry, looked up): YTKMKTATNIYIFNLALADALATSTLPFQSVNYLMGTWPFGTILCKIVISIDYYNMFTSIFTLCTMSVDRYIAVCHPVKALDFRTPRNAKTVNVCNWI
T2 sequence (P33535 whole entry): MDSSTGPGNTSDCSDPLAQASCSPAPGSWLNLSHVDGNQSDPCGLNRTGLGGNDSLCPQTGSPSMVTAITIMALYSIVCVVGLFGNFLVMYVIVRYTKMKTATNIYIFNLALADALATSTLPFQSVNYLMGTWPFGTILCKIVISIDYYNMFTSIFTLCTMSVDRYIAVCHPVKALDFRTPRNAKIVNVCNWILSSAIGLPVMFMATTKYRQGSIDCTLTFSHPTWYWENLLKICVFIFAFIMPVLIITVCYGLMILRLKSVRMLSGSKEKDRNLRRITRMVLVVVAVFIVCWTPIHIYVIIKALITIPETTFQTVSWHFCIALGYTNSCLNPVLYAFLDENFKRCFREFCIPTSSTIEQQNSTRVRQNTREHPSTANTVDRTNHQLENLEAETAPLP
T1 sequence (P33533 whole entry): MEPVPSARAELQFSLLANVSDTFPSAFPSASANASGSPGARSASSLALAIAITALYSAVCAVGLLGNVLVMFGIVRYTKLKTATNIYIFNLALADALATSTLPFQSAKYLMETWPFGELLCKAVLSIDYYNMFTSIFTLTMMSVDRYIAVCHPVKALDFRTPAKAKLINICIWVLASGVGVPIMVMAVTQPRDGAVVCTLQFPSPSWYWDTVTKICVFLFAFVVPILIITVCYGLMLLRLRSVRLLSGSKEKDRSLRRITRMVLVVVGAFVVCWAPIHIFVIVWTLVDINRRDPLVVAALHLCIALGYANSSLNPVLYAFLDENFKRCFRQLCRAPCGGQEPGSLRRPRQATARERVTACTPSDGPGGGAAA
T3 sequence (P32300 whole entry): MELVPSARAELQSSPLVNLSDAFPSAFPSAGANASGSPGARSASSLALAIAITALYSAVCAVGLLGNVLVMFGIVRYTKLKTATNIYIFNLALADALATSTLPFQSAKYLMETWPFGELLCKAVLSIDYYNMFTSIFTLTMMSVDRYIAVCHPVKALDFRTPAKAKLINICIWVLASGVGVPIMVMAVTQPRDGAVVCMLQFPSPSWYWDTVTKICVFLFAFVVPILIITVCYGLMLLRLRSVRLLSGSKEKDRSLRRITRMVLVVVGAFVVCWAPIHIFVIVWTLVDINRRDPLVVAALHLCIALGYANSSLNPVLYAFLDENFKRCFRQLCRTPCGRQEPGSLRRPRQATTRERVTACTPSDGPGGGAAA

| Structure (SMILES) | inhibition of morphine-induced analgesia [1] | IC50 ([2]; agonism, read-out: GPI) [nM] | pA2(μ)/pA2(δ) ([2]; selectivity of antagonism) | GPI pA2 ([2]; μ antagonism) | Ki [3] [nM] | Ki(δ)/Ki(μ) ([4]; selectivity ratio) | Ki ([4]; versus [3H]DAMGO, rat brain synaptosomes, read-out: Ki(μ)) [nM] | IC50 ([5]; agonism, read-out: MVD) [nM] | MVD pA2 ([5]; δ antagonism) | Ki ([6]; g (no SE, no n)) [nM] | Ki(δ)/Ki(μ) ([6]; g) | Ki [7] [nM] |
| --- | --- | --- | --- | --- | --- | --- | --- | --- | --- | --- | --- | --- |
| C=CCNC(Cc1c(C)cc(O)cc1C)C(=O)NCCCCCCNC(=O)C(Cc1c(C)cc(O)cc1C)NCC=C (stereo not drawn) [Compound 33, Bis-[(N-allyl)Dmt-NH]hexyl] | inhibit morphine-induced analgesia | > 10000 | 2.5 | 7.23 | 77.8 ± 14 | 11 | 6.94 ± 1.4 | > 10000 | 6.83 | – | – | – |
| Cc1cc(O)cc(C)c1CC(N)C(=O)NCCCc1cnc(CCCNC(=O)C(N)Cc2c(C)cc(O)cc2C)c(=O)[nH]1 (stereo not drawn) [Compound 37, 3,6-Bis-[Dmt-NH-propyl]pyrazinone] | – | – | – | – | – | – | – | – | – | 0.042 | 307 | 13.2 |

— patent publication US8030341B2, “Dmt-derivative compounds and related compositions and methods of use” (priority 2005, dated 2011)
